Biological target: phosphorylated active hERK2 enzyme (Homo sapiens (Human), UniProt P28482)
Experiment: Active Human ERK2 (hERK2) Activity Assay (IMAP-FP)
Assay type: biochemical
Settings: Table 6, 0.5 nM hERK2, 30 μM ATP, 10 point titration, read-out: AERK2 IC50
Procedure, shortened: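 IMAP fluorescence-polarization kinase assay: 0.5 nM activated hERK2 with 900 nM unlabeled plus 80 nM labeled peptide and 30 μM ATP, reacted 60 min. Quenched with IMAP beads in binding buffer with 24 mM NaCl; FP read after 60 min equilibration.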

phosphorylated active hERK2 enzyme, sequence (P28482 whole entry): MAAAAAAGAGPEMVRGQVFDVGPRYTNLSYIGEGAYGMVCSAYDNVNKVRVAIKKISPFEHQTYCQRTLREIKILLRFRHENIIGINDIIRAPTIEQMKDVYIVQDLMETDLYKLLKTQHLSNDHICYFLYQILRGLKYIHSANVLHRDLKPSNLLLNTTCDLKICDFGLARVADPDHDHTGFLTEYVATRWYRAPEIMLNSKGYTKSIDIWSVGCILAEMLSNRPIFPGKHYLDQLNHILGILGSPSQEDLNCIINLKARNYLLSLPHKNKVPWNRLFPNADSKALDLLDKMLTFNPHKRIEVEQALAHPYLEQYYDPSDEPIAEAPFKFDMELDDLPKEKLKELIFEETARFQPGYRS

SMILES	IC50 [nM]
CC(C)(O)[C@@H](NC(=O)Nc1cc2[nH]nc(N3CC(F)(F)C3)c2cn1)c1ccccc1 [Example 367, 1-[3-(3,3-difluoro-azetidin-1-yl)-1H-pyrazolo[4,3-c]-pyridin-6-yl]-3-[(1S)-2-hydroxy-2-methyl-1-phenylpropyl]urea]	0.6
C[C@@H](NC(=O)Nc1cc2[nH]nc3c2c(n1)COC(=O)N3)c1ccccc1 [Example 368, 1-(8-oxo-2,6,8,9-tetrahydro-7-oxa-1,2,5,9-tetraazabenzo[cd]-azulen-4-yl)-3-[(1R)-1-phenylethyl]urea]	1.1
COC[C@@H](NC(=O)Nc1cc2[nH]nc(Nc3cnn(C)c3)c2cn1)c1ccccc1 [Example 370, 1-[(1S)-2-methoxy-1-phenylethyl]-3-{3-[(1-methyl-1H-pyrazol-4-yl)-amino]-1H-pyrazolo[4,3-c]-pyridin-6-yl}urea]	19.7
COCCNc1n[nH]c2cc(NC(=O)N[C@H](COC)c3ccccc3)ncc12 [Example 371, 1-{3-[(2-methoxy-ethyl)amino]-1H-pyrazolo[4,3-c]-pyridin-6-yl}-3-[(1S)-2-methoxy-1-phenylethyl]urea]	0.7
COC[C@@H](NC(=O)Nc1cc2[nH]nc(Nc3cnn(C)c3)c2cn1)c1ccc(F)cc1 [Example 372, 1-[(1S)-1-(4-fluorophenyl)-2-methoxyethyl]-3-{3-[(1-methyl-1H-pyrazol-4-yl)-amino]-1H-pyrazolo[4,3-c]-pyridin-6-yl}urea]	14.7
COCCNc1n[nH]c2cc(NC(=O)N[C@H](C)c3ccc(F)cc3)ncc12 [Example 374, 1-[(1R)-1-(4-fluorophenyl)ethyl]-3-{3-[(2-methoxy-ethyl)amino]-1H-pyrazolo[4,3-c]-pyridin-6-yl}urea]	2.8
Nc1n[nH]c2cc(NC(=O)N[C@H](CO)c3ccccc3)ncc12 [Example 375, 1-(3-amino-1H-pyrazolo[4,3-c]-pyridin-6-yl)-3-[(1S)-2-hydroxy-1-phenylethyl]urea]	2.5
C[C@@H](NC(=O)Nc1cc2[nH]nc(N3CC4C5CCC(C)(O5)C4C3)c2cn1)c1ccc(F)cc1 (stereo partly drawn) [Example 376, 1-[(1R)-1-(4-fluorophenyl)ethyl]-3-[3-(4-methyl-octahydro-2H-4,7-epoxyisoindol-2-yl)-1H-pyrazolo[4,3-c]-pyridin-6-yl]urea]	13.8
CC12CCC(O1)C1CN(c3n[nH]c4cc(NC(=O)N[C@@H](c5ccc(F)cc5)C(C)(C)O)ncc34)CC12 (stereo partly drawn) [Example 377, 1-[(1S)-1-(4-fluorophenyl)-2-hydroxy-2-methyl-propyl]-3-[3-(4-methyloctahydro-2H-4,7-epoxyisoindo1-2-yl)-1H-pyrazolo[4,3-c]-pyridin-6-yl]urea]	2.3
C[C@@H](NC(=O)Nc1cc2[nH]nc(Nc3ccccc3)c2cn1)c1ccccc1 [Example 379, 1-[3-(phenyl-amino)-1H-pyrazolo[4,3-c]-pyridin-6-yl]-3-[(1R)-1-phenylethyl]urea]	127
C[C@@H](NC(=O)Nc1cc2[nH]nc(Nc3ccc(C#N)nc3)c2cn1)c1ccccc1 [Example 381, 1-{3-[(6-cyanopyridin-3-yl)amino]-1H-pyrazolo[4,3-c]-pyridin-6-yl}-3-[(1R)-1-phenylethyl]urea]	367
C[C@@H](NC(=O)Nc1cc2[nH]nc(Nc3ccc(F)nc3)c2cn1)c1ccccc1 [Example 382, 1-{3-[(6-fluoropyridin-3-yl)amino]-1H-pyrazolo[4,3-c]-pyridin-6-yl}-3-[(1R)-1-phenylethyl]urea]	72.1
COC[C@@H](NC(=O)Nc1cc2[nH]nc(Nc3ccccc3C#N)c2cn1)c1ccccc1 [Example 383, 1-{3-[(2-cyanophenyl)amino]-1H-pyrazolo[4,3-c]pyridin-6-yl}-3-[(1S)-2-methoxy-1-phenylethyl]urea]	2280
COC[C@@H](NC(=O)Nc1cc2[nH]nc(Nc3ccccc3F)c2cn1)c1ccccc1 [Example 384, 1-{3-[(2-fluoro-phenyl)amino]-1H-pyrazolo[4,3-c]-pyridin-6-yl}-3-[(1S)-2-methoxy-1-phenylethyl]urea]	9.4
COC(=O)Nc1n[nH]c2cc(NC(=O)N[C@@H](c3ccccc3)C3(O)CCC3)ncc12 [Example 385, methyl [6-({[(S)-(1-hydroxycyclo-butyl)(phenyl)-methyl]carbamoyl}amino)-1H-pyrazolo[4,3-c]-pyridin-3-yl]-carbamate]	2
COC(=O)Nc1n[nH]c2cc(NC(=O)N[C@@H](c3ccc(F)cc3)C3(O)CCC3)ncc12 [Example 386, methyl [6-({[(S)-(4-fluorophenyl)(1-hydroxycyclobutyl)methyl]carbamoyl}amino)-1H-pyrazolo[4,3-c]-pyridin-3-yl]-carbamate]	0.4
C[C@@H](O)[C@@H](NC(=O)Nc1cc2[nH]nc(N3CCc4ncsc4C3)c2cn1)c1ccccc1 [Example 387, 1-[3-(6,7-dihydro[1,3]-thiazolo[5,4-c]-pyridin-5(4H)-yl)-1H-pyrazolo[4,3-c]pyridin-6-yl]-3-[(1S,2R)-2-hydroxy-1-phenylpropyl]urea]	0.5
C[C@H](O)[C@@H](NC(=O)Nc1cc2[nH]nc(N3CCc4ncsc4C3)c2cn1)c1ccccc1 [Example 388, 1-[3-(6,7-dihydro[1,3]-thiazolo[5,4-c]pyridin-5(4H)-yl)-1H-pyrazolo[4,3-c]-pyridin-6-yl]-3-[(1S,2S)-2-hydroxy-1-phenylpropyl]urea]	34.6
COC(=O)Nc1n[nH]c2cc(NC(=O)N[C@@H](c3ccccc3)C(C)(C)O)ncc12 [Example 389, methyl [6-({[(1S)-2-hydroxy-2-methyl-1-phenyl-propyl]carbamoyl}amino)-1H-pyrazolo[4,3-c]-pyridin-3-yl]-carbamate]	0.4
COC(=O)Nc1n[nH]c2cc(NC(=O)N[C@@H](c3ccc(F)cc3)C(C)(C)O)ncc12 [Example 390, methyl [6-({[(1S)-1-(4-fluorophenyl)-2-hydroxy-2-methylpropyl]-carbamoyl}amino)-1H-pyrazolo[4,3-c]pyridin-3-yl]-carbamate]	0.5
C[C@@H](NC(=O)Nc1cc2[nH]nc(N3CCc4nn(C)cc4C3)c2cn1)c1ccc(F)cc1 [Example 391, 1-[(1R)-1-(4-fluorophenyl)ethyl]-3-(2′-methyl-2′,4′,6′,7′-tetrahydro-1H-3,5′-bipyrazolo[4,3-c]-pyridin-6-yl)urea]	0.4
COC(=O)Nc1n[nH]c2cc(NC(=O)NC(c3ccc(Cl)c(Cl)c3)c3cnco3)ncc12 (stereo not drawn) [Example 392, methyl [6-({[(3,4-dichlorophenyl)(1,3-oxazol-5-yl)-methyl]carbamoyl}amino)-1H-pyrazolo[4,3-c]-pyridin-3-yl]-carbamate]	2.6
C[C@@H](O)[C@@H](NC(=O)Nc1cc2[nH]nc(N3CCc4nn(C)cc4C3)c2cn1)c1ccccc1 [Example 393, 1-[(1S,2R)-2-hydroxy-1-phenylpropyl]-3-(2′-methyl-2′,4′,6′,7′-tetrahydro-1H-3,5′-bipyrazolo[4,3-c]-pyridin-6-yl)urea]	0.4
COC(=O)Nc1n[nH]c2cc(NC(=O)N[C@H]3c4ccccc4OCC[C@H]3O)ncc12 [Example 394, methyl [6-({[(4R,5S)-4-hydroxy-2,3,4,5-tetrahydro-1-benzoxepin-5-yl]-carbamoyl}amino)-1H-pyrazolo[4,3-c]pyridin-3-yl]-carbamate]	0.3

Source: patent US9233979B2, “Compounds that are ERK inhibitors” (Merck Sharp & Dohme Corp., priority 2012, dated 2016)
